Laboratory results published in patent publication US10029992B2, “Diaminotriazine compounds and their use as herbicides” (BASF SE, priority 2014, dated 2018).

How the values were obtained:
Test in all cases: Greenhouse experiment, pre-emergence treatment
Conditions in all cases: pre-emergence method
AMARE = assay type: in vivo, Amaranthus retroflexus
Text: (§1) The seeds of the test plants were sown separately for each species. For the pre-emergence treatment, the active ingredients, which had been suspended or emulsified in water, were applied directly after sowing by means of finely distributing nozzles. The containers were irrigated gently to promote germination and growth and subsequently covered with transparent plastic hoods until the plants had rooted. This cover caused uniform germination of the test plants, unless this had been impaired by the active ingredients. Depending on the species, the plants were kept at 10-25° C. or 20-35° C., respectively. The test period extended over 2 to 4 weeks. During this time, the plants were tended, and their response to the individual treatments was evaluated. Evaluation was carried out using a scale from 0 to 100. 100 means no emergence of the plants, or complete destruction of at least the aerial moieties, and 0 means no damage, or normal course of growth. A moderate herbicidal activity is given at values of at least 60, a good herbicidal activity is given at values of at least 70, and a very good herbicidal activity is given at values of at least 85. […] [table]

APESV = assay type: in vivo, Apera spica-venti
Text: (§2) The culture containers used were plastic flowerpots containing loamy sand with approximately 3.0% of humus as the substrate. The seeds of the test plants were sown separately for each species.
(§3) For the pre-emergence treatment, the active ingredients, which had been suspended or emulsified in water, were applied directly after sowing by means of finely distributing nozzles. The containers were irrigated gently to promote germination and growth and subsequently covered with transparent plastic hoods until the plants had rooted. This cover caused uniform germination of the test plants, unless this had been impaired by the active ingredients.
(§4) Depending on the species, the plants were kept at 10-25° C. or 20-35° C., respectively.
(§5) The test period extended over 2 to 4 weeks. During this time, the plants were tended, and their response to the individual treatments was evaluated.
(§6) Evaluation was carried out using a scale from 0 to 100. 100 means no emergence of the plants, or complete destruction of at least the aerial moieties, and 0 means no damage, or normal course of growth. A moderate herbicidal activity is given at values of at least 60, a good herbicidal activity is given at values of at least 70, and a very good herbicidal activity is given at values of at least 85.
(§7) The plants used in the greenhouse experiments were of the following species: […]

ECHCG = assay type: in vivo, Echinochloa crus-galli
Text: as §2, §3, §4, §5, §6, §7

SETFA = assay type: in vivo, Setaria faberi
Text: as §1

CC(C)(F)c1nc(N)nc(Nc2c(F)cccc2Oc2cccc(F)c2)n1 [Example 10]
herbicidal activity against AMARE (AMARE; application rate 0.5 kg/ha): very good (a very good herbicidal activity is given at values of at least 85)
herbicidal activity against APESV (APESV; application rate 0.5 kg/ha): very good (a very good herbicidal activity is given at values of at least 85)
herbicidal activity against ECHCG (ECHCG; application rate 0.5 kg/ha): very good (a very good herbicidal activity is given at values of at least 85)

Cc1cc(C)cc(Oc2cccc(F)c2Nc2nc(N)nc(CC(C)C)n2)c1 [Example 17]
herbicidal activity against APESV (APESV; application rate 1000 g/ha): good (a good herbicidal activity is given at values of at least 70)
herbicidal activity against SEFTA (SETFA; application rate 1000 g/ha): very good (a very good herbicidal activity is given at values of at least 85)

Cc1cc(C)cc(Oc2cccc(F)c2Nc2nc(N)nc(C(C)C)n2)c1 [Example 19]
herbicidal activity against APESV (APESV; application rate 0.25 kg/ha): very good (a very good herbicidal activity is given at values of at least 85)
herbicidal activity against APESV (APESV; application rate 250 g/ha): very good (a very good herbicidal activity is given at values of at least 85)
herbicidal activity against ECHCG (ECHCG; application rate 0.25 kg/ha): very good (a very good herbicidal activity is given at values of at least 85)
herbicidal activity against ECHCG (ECHCG; application rate 250 g/ha): very good (a very good herbicidal activity is given at values of at least 85)
herbicidal activity against SETFA (SETFA; application rate 0.25 kg/ha): very good (a very good herbicidal activity is given at values of at least 85)
herbicidal activity against SEFTA (SETFA; application rate 250 g/ha): very good (a very good herbicidal activity is given at values of at least 85)

COc1cc(OC)cc(Oc2cccc(F)c2Nc2nc(N)nc(C(C)(C)F)n2)c1 [Example 27]
herbicidal activity against APESV (APESV; application rate 0.25 kg/ha): very good (a very good herbicidal activity is given at values of at least 85)
herbicidal activity against ECHCG (ECHCG; application rate 0.25 kg/ha): very good (a very good herbicidal activity is given at values of at least 85)
herbicidal activity against SETFA (SETFA; application rate 0.25 kg/ha): very good (a very good herbicidal activity is given at values of at least 85)

CCC(C)(F)c1nc(N)nc(Nc2c(F)cccc2Oc2cc(C)cc(C)c2)n1 (centres unmarked) [Example 32]
herbicidal activity against APESV (APESV; application rate 0.25 kg/ha): very good (a very good herbicidal activity is given at values of at least 85)
herbicidal activity against ECHCG (ECHCG; application rate 0.25 kg/ha): very good (a very good herbicidal activity is given at values of at least 85)
herbicidal activity against SETFA (SETFA; application rate 0.25 kg/ha): very good (a very good herbicidal activity is given at values of at least 85)

Cc1cc(C)cc(Oc2cccc(Cl)c2Nc2nc(N)nc(C(C)(C)F)n2)c1 [Example 37]
herbicidal activity against APESV (APESV; application rate 0.25 kg/ha): very
herbicidal activity against ECHCG (ECHCG; application rate 0.25 kg/ha): good (a good herbicidal activity is given at values of at least 70)

CC(C)(F)c1nc(N)nc(Nc2c(F)c(F)cc(-c3ccccc3)c2F)n1 [Example 44]
herbicidal activity against AMARE (AMARE; application rate 0.5 kg/ha): good to very good
herbicidal activity against SETFA (SETFA; application rate 0.5 kg/ha): good (a good herbicidal activity is given at values of at least 70)

CN(C)c1cc(Oc2cccc(F)c2Nc2nc(N)nc(C(C)(C)F)n2)cc(C(F)(F)F)c1 [Example 80]
herbicidal activity against ECHCG (ECHCG; application rate 125 g/ha): very good (a very good herbicidal activity is given at values of at least 85)
herbicidal activity against SETFA (SETFA; application rate 125 g/ha): very good (a very good herbicidal activity is given at values of at least 85)

Cc1cc(OCC2CCC2)cc(Oc2cccc(F)c2Nc2nc(N)nc(C(C)(C)F)n2)c1 [Example 83]
herbicidal activity against AMARA (AMARE; application rate 250 g/ha): very good (a very good herbicidal activity is given at values of at least 85)
herbicidal activity against APESV (APESV; application rate 250 g/ha): good (a good herbicidal activity is given at values of at least 70)
herbicidal activity against ECHCG (ECHCG; application rate 250 g/ha): good (a good herbicidal activity is given at values of at least 70)

COc1cc(I)cc(Oc2cccc(F)c2Nc2nc(N)nc(C(C)(C)F)n2)c1 [Example 84]
herbicidal activity against AMARA (AMARE; application rate 250 g/ha): very good (a very good herbicidal activity is given at values of at least 85)
herbicidal activity against ECHCG (ECHCG; application rate 250 g/ha): very good (a very good herbicidal activity is given at values of at least 85)
herbicidal activity against SETFA (SETFA; application rate 250 g/ha): very good (a very good herbicidal activity is given at values of at least 85)

Cc1cc(Oc2cccc(F)c2Nc2nc(N)nc(C(C)(C)F)n2)cc(OC2CCCC2)c1 [Example 85]
herbicidal activity against AMARA (AMARE; application rate 250 g/ha): very good (a very good herbicidal activity is given at values of at least 85)

Cc1cc(Oc2cccc(F)c2Nc2nc(N)nc(C(C)(C)F)n2)cc(OC2CCCCC2)c1 [Example 86]
herbicidal activity against SEFTA (SETFA; application rate 500 g/ha): good (a good herbicidal activity is given at values of at least 70)

CC(C)(F)c1nc(N)nc(Nc2c(F)cccc2Oc2cc(-c3ccccc3)cc(C(F)(F)F)c2)n1 [Example 87]
herbicidal activity against AMARA (AMARE; application rate 500 g/ha): very good (a very good herbicidal activity is given at values of at least 85)
herbicidal activity against ECHCG (ECHCG; application rate 500 g/ha): very good (a very good herbicidal activity is given at values of at least 85)
herbicidal activity against SETFA (SETFA; application rate 500 g/ha): very good (a very good herbicidal activity is given at values of at least 85)

CC(C)(F)c1nc(N)nc(Nc2c(F)cccc2Oc2cccc(C(F)(F)F)c2)n1 [Example 88]
herbicidal activity against AMARA (AMARE; application rate 500 g/ha): very good (a very good herbicidal activity is given at values of at least 85)
herbicidal activity against ECHCG (ECHCG; application rate 500 g/ha): very good (a very good herbicidal activity is given at values of at least 85)
herbicidal activity against SETFA (SETFA; application rate 500 g/ha): very good (a very good herbicidal activity is given at values of at least 85)

CCc1cccc(Oc2cccc(F)c2Nc2nc(N)nc(C(C)(C)F)n2)c1 [Example 90]
herbicidal activity against AMARE (AMARE; application rate 500 g/ha): very good (a very good herbicidal activity is given at values of at least 85)
herbicidal activity against APESV (APESV; application rate 500 g/ha): very good (a very good herbicidal activity is given at values of at least 85)
herbicidal activity against ECHCG (ECHCG; application rate 500 g/ha): very good (a very good herbicidal activity is given at values of at least 85)

COC(=O)c1cccc(Oc2cccc(F)c2Nc2nc(N)nc(C(C)(C)F)n2)c1 [Example 91]
herbicidal activity against APESV (APESV; application rate 500 g/ha): very good (a very good herbicidal activity is given at values of at least 85)

CC(C)(C)c1cccc(Oc2cccc(F)c2Nc2nc(N)nc(C(C)(C)F)n2)c1 [Example 92]
herbicidal activity against APESV (APESV; application rate 500 g/ha): very good (a very good herbicidal activity is given at values of at least 85)
herbicidal activity against ECHCG (ECHCG; application rate 500 g/ha): very good (a very good herbicidal activity is given at values of at least 85)
herbicidal activity against SETFA (SETFA; application rate 500 g/ha): very good (a very good herbicidal activity is given at values of at least 85)

CC(C)(F)c1nc(N)nc(Nc2c(F)cccc2Oc2cccc(Br)c2)n1 [Example 93]
herbicidal activity against APESV (APESV; application rate 500 g/ha): very good (a very good herbicidal activity is given at values of at least 85)
herbicidal activity against ECHCG (ECHCG; application rate 500 g/ha): very good (a very good herbicidal activity is given at values of at least 85)
herbicidal activity against SETFA (SETFA; application rate 500 g/ha): very good (a very good herbicidal activity is given at values of at least 85)

CC(C)(F)c1nc(N)nc(Nc2c(F)cccc2Oc2cccc(Cl)c2)n1 [Example 94]
herbicidal activity against APESV (APESV; application rate 500 g/ha): very good (a very good herbicidal activity is given at values of at least 85)
herbicidal activity against ECHCG (ECHCG; application rate 500 g/ha): very good (a very good herbicidal activity is given at values of at least 85)
herbicidal activity against SETFA (SETFA; application rate 500 g/ha): very good (a very good herbicidal activity is given at values of at least 85)

CC(C)(F)c1nc(N)nc(Nc2c(F)cccc2Oc2cccc(OC(F)F)c2)n1 [Example 95]
herbicidal activity against APESV (APESV; application rate 500 g/ha): very good (a very good herbicidal activity is given at values of at least 85)
herbicidal activity against ECHCG (ECHCG; application rate 500 g/ha): very good (a very good herbicidal activity is given at values of at least 85)
herbicidal activity against SETFA (SETFA; application rate 500 g/ha): very good (a very good herbicidal activity is given at values of at least 85)

CC(C)(F)c1nc(N)nc(Nc2c(F)cccc2Oc2cc(OC(F)(F)F)cc(-c3ccccc3)c2)n1 [Example 98]
herbicidal activity against AMARE (AMARE; application rate 500 g/ha): very good (a very good herbicidal activity is given at values of at least 85)
herbicidal activity against ECHCG (ECHCG; application rate 500 g/ha): very good (a very good herbicidal activity is given at values of at least 85)
herbicidal activity against SETFA (SETFA; application rate 500 g/ha): very good (a very good herbicidal activity is given at values of at least 85)

CN(c1ccccc1)c1cccc(F)c1Nc1nc(N)nc(C(C)(C)F)n1 [Example 102]
herbicidal activity against AMARE (AMARE; application rate 1000 g/ha): very good (a very good herbicidal activity is given at values of at least 85)
herbicidal activity against ECHCG (ECHCG; application rate 1000 g/ha): very good (a very good herbicidal activity is given at values of at least 85)
herbicidal activity against SEFTA (SETFA; application rate 1000 g/ha): very good (a very good herbicidal activity is given at values of at least 85)

Cc1cccc(N(C)c2cccc(F)c2Nc2nc(N)nc(C(C)(C)F)n2)c1 [Example 103]
herbicidal activity against AMARE (AMARE; application rate 500 g/ha): very good (a very good herbicidal activity is given at values of at least 85)
herbicidal activity against ECHCG (ECHCG; application rate 500 g/ha): very good (a very good herbicidal activity is given at values of at least 85)
herbicidal activity against SEFTA (SETFA; application rate 500 g/ha): very good (a very good herbicidal activity is given at values of at least 85)
